This experiment relates to L1210 leukemia ip in BDF1 mice, survival T/C. Kind of experiment: NCI In Vivo Anticancer Drug Screen. Data for tumor model L1210 Leukemia (intraperitoneal) in B6D2F1 (BDF1) mice. The note with it: endpoint: mean survival time, higher = longer survival. In short, it runs like this:
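Tumor cells were implanted, animals were treated, and survival was followed. The result divides the treated measurement by the vehicle-control measurement.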

Setting [1] is: dose: 100.0 mg/kg/injection, schedule: Q04DX003 (ip), vehicle: saline sonified.
Where [2] appears, read: dose: 200.0 mg/kg/injection, schedule: Q04DX003 (ip), vehicle: saline sonified.
The mark [3] stands for this setting: dose: 400.0 mg/kg/injection, schedule: Q04DX003 (ip), vehicle: saline sonified.
[4] abbreviates: dose: 100.0 mg/kg/injection, schedule: Q01DX001 (ip), vehicle: saline.
Where [5] appears, read: dose: 200.0 mg/kg/injection, schedule: Q01DX001 (ip), vehicle: saline.
The mark [6] stands for this setting: dose: 200.0 mg/kg/injection, schedule: Q01DX009 (ip), vehicle: other.
The mark [7] stands for this setting: dose: 400.0 mg/kg/injection, schedule: Q01DX001 (ip), vehicle: saline.
Where [8] appears, read: dose: 100.0 mg/kg/injection, schedule: Q01DX009 (ip), vehicle: saline with Tween-80.
Where [9] appears, read: dose: 200.0 mg/kg/injection, schedule: Q01DX009 (ip), vehicle: saline with Tween-80.
The mark [10] stands for this setting: dose: 400.0 mg/kg/injection, schedule: Q01DX009 (ip), vehicle: saline with Tween-80.

Values joined by “and” are separate entries in the source; they are usually repeats but may differ in a detail not shown here. Equal entries are not always repeated. Inconclusive results and toxic doses are left out.

Regarding `CCOC(=O)CCC(C)(C#N)C(C#N)C(=O)OCC` (stereo not given), the T/C by setting is: (dose: 100.0 mg/kg/injection, schedule: Q01DX009 (ip), vehicle: saline sonified) 97 % of control; under setting [1], 108 % of control; (dose: 200.0 mg/kg/injection, schedule: Q01DX009 (ip), vehicle: saline sonified) 110 % of control; under setting [2], 97 % of control; (dose: 400.0 mg/kg/injection, schedule: Q01DX009 (ip), vehicle: saline sonified) 100 % of control; under setting [3], 98 % of control.
For `Cc1ccc(Cl)cc1N=Cc1cccc([N+](=O)[O-])c1`, the T/C is 96 % of control (dose: 75.0 mg/kg/injection, schedule: Q04DX003 (ip), vehicle: Klucel (hydroxypropylcellulose) (HPC)); 100 % of control (dose: 100.0 mg/kg/injection, schedule: Q01DX001 (ip), vehicle: Klucel (hydroxypropylcellulose) (HPC)); 93 % of control (dose: 150.0 mg/kg/injection, schedule: Q04DX003 (ip), vehicle: Klucel (hydroxypropylcellulose) (HPC)); 97 % of control (dose: 200.0 mg/kg/injection, schedule: Q01DX001 (ip), vehicle: Klucel (hydroxypropylcellulose) (HPC)); 93 % of control (dose: 300.0 mg/kg/injection, schedule: Q04DX003 (ip), vehicle: Klucel (hydroxypropylcellulose) (HPC)); 101 % of control (dose: 400.0 mg/kg/injection, schedule: Q01DX001 (ip), vehicle: Klucel (hydroxypropylcellulose) (HPC)).
`CCOCCOCCOC(C)Oc1cccc(OC)c1` (stereo not given): the T/C is, setting by setting: (dose: 100.0 mg/kg/injection, schedule: Q04DX002 (ip), vehicle: saline) 107 % of control; (dose: 200.0 mg/kg/injection, schedule: Q04DX002 (ip), vehicle: saline) 101 % of control; (dose: 400.0 mg/kg/injection, schedule: Q04DX002 (ip), vehicle: saline) 96 % of control.
In the case of `CCOC(=O)c1c(/N=C/c2ccc3c(c2)OCO3)sc2c1CCCC2`, the T/C reads like this: (dose: 100.0 mg/kg/injection, schedule: Q04DX002 (ip), vehicle: saline with Tween-80) 98 % of control; (dose: 200.0 mg/kg/injection, schedule: Q04DX002 (ip), vehicle: saline with Tween-80) 95 % of control; (dose: 400.0 mg/kg/injection, schedule: Q04DX002 (ip), vehicle: saline with Tween-80) 95 % of control.
For `CC(=O)OCC(=O)[C@@]1(O)CC[C@H]2[C@@H]3CCC4=CC(=O)C=C[C@]4(C)[C@H]3[C@@H](O)C[C@@]21C`, the T/C (dose: 50.0 mg/kg/injection, schedule: Q04DX003 (sc), vehicle: steriod suspending solution) is 97 % of control; the T/C (dose: 100.0 mg/kg/injection, schedule: Q04DX003 (sc), vehicle: steriod suspending solution) is 94 % of control; the T/C (dose: 200.0 mg/kg/injection, schedule: Q04DX003 (sc), vehicle: steriod suspending solution) was 96 % of control; the T/C (dose: 400.0 mg/kg/injection, schedule: Q04DX003 (sc), vehicle: steriod suspending solution) was 106 % of control.
Take `Cc1cc(CCl)c(C)c(Br)c1C`: the T/C was 95 % of control (dose: 6.25 mg/kg/injection, schedule: Q01DX009 (ip), vehicle: Klucel (hydroxypropylcellulose) (HPC)); 90 % of control (dose: 12.5 mg/kg/injection, schedule: Q01DX009 (ip), vehicle: Klucel (hydroxypropylcellulose) (HPC)); 89 % of control (dose: 25.0 mg/kg/injection, schedule: Q01DX009 (ip), vehicle: Klucel (hydroxypropylcellulose) (HPC)); 92 % of control (dose: 50.0 mg/kg/injection, schedule: Q01DX009 (ip), vehicle: Klucel (hydroxypropylcellulose) (HPC)).
As for `CNC(=O)Oc1c(C)occc1=O`, the T/C runs as follows: (dose: 75.0 mg/kg/injection, schedule: Q01DX009 (ip), vehicle: other) 100 % of control; (dose: 75.0 mg/kg/injection, schedule: Q01DX009 (ip), vehicle: saline with Tween-80) 103 % of control; under setting [4], 106 % of control; (dose: 135.0 mg/kg/injection, schedule: Q01DX009 (ip), vehicle: other) 111 % of control; (dose: 150.0 mg/kg/injection, schedule: Q01DX009 (ip), vehicle: other) 104 % of control; (dose: 150.0 mg/kg/injection, schedule: Q01DX009 (ip), vehicle: saline with Tween-80) 111 % of control. In addition, the T/C is 101 % of control under setting [5]; 108 % of control under setting [6]; 116 % of control (dose: 300.0 mg/kg/injection, schedule: Q01DX009 (ip), vehicle: other); 106 % of control (dose: 300.0 mg/kg/injection, schedule: Q01DX009 (ip), vehicle: saline with Tween-80); 105 % of control under setting [7].
For the compound `Cc1cc(Cl)c(Cl)cc1NC(=O)C(Br)C(Br)c1ccccc1` (stereo not given), the T/C was 92 % of control (dose: 100.0 mg/kg/injection, schedule: Q01DX009 (ip), vehicle: other); 92 % of control under setting [6]; 92 % of control (dose: 400.0 mg/kg/injection, schedule: Q01DX009 (ip), vehicle: other).
In the case of `BrCCCCCc1ccccc1`, the T/C is, setting by setting: under setting [4], 106 % of control; under setting [5], 107 % of control; under setting [7], 101 % of control.
As for `CC(=O)Nc1ccc(NC(=O)Nc2cccc(F)c2)cc1`, the T/C runs as follows: under setting [8], 92 % of control; under setting [9], 89 % of control; under setting [10], 92 % of control.
Consider `CCCCCC(=O)N(CC)C(=NCC)c1ccc(NC(=O)c2ccc(C(=O)Nc3ccc(C(=NCC)N(CC)C(=O)CCCCC)cc3)cc2)cc1`, for which the T/C (dose: 3.12 mg/kg/injection, schedule: Q01DX015 (ip), vehicle: methylcellulose (MC)) is 100 % of control; the T/C (dose: 6.25 mg/kg/injection, schedule: Q01DX015 (ip), vehicle: methylcellulose (MC)) is 102 % of control; the T/C (dose: 12.5 mg/kg/injection, schedule: Q01DX015 (ip), vehicle: methylcellulose (MC)) was 94 % of control; the T/C (dose: 25.0 mg/kg/injection, schedule: Q01DX015 (ip), vehicle: methylcellulose (MC)) is 88 % of control; the T/C (dose: 50.0 mg/kg/injection, schedule: Q01DX015 (ip), vehicle: methylcellulose (MC)) was 100 % of control; the T/C (dose: 100.0 mg/kg/injection, schedule: Q01DX015 (ip), vehicle: methylcellulose (MC)) is 100 % of control. Also, the T/C is 90 % of control (dose: 200.0 mg/kg/injection, schedule: Q01DX015 (ip), vehicle: methylcellulose (MC)) and 90 % of control (dose: 400.0 mg/kg/injection, schedule: Q01DX015 (ip), vehicle: methylcellulose (MC)).
In the case of `CC1=N/C(=C/c2ccc([N+](=O)[O-])s2)C(=O)O1`, the T/C reads like this: (dose: 50.0 mg/kg/injection, schedule: Q04DX002 (ip), vehicle: Klucel (hydroxypropylcellulose) (HPC)) 112 % of control; (dose: 100.0 mg/kg/injection, schedule: Q04DX002 (ip), vehicle: Klucel (hydroxypropylcellulose) (HPC)) 97 % of control; (dose: 200.0 mg/kg/injection, schedule: Q04DX002 (ip), vehicle: Klucel (hydroxypropylcellulose) (HPC)) 95 % of control and 115 % of control; (dose: 400.0 mg/kg/injection, schedule: Q04DX002 (ip), vehicle: Klucel (hydroxypropylcellulose) (HPC)) 98 % of control.
As to `CC(=O)Nc1ccc(NC(C)=O)c2c1C(=O)c1ccccc1C2=O`, the T/C reads like this: under setting [8], 94 % of control; (dose: 100.0 mg/kg/injection, schedule: Q04DX003 (ip), vehicle: saline with Tween-80) 119 % of control; under setting [9], 96 % of control; (dose: 200.0 mg/kg/injection, schedule: Q04DX003 (ip), vehicle: saline with Tween-80) 112 % of control; under setting [10], 91 % of control; (dose: 400.0 mg/kg/injection, schedule: Q04DX003 (ip), vehicle: saline with Tween-80) 93 % of control.
`Cn1cnc([N+](=O)[O-])c1[Se]c1nc(N)nc2nc[nH]c12`: the T/C is 159 % of control (dose: 25.0 mg/kg/injection, schedule: Q01DX005 (ip), vehicle: other) and 92 % of control (dose: 50.0 mg/kg/injection, schedule: Q01DX005 (ip), vehicle: other).
For the compound `O=C1NCCS1`, the T/C is 107 % of control (dose: 50.0 mg/kg/injection, schedule: Q01DX009 (ip), vehicle: saline); 107 % of control under setting [8]; 92 % of control (dose: 100.0 mg/kg/injection, schedule: Q01DX009 (ip), vehicle: saline); 102 % of control under setting [1]; 107 % of control under setting [9]; 115 % of control (dose: 200.0 mg/kg/injection, schedule: Q01DX009 (ip), vehicle: saline). The T/C by setting is: under setting [2], 100 % of control; under setting [10], 96 % of control; under setting [3], 106 % of control.
